From article PMC8957246, “Synthesis and diverse biological activity profile of triethylammonium isatin-3-hydrazones” (ADMET & DMPK, 2022)
Where two headings read alike, the source gives them in different places.

Assays:
Assay type in all cases: cell-based
[1] = test system: Pectobacterium carotovorum subsp. carotovorum MI; test: Bactericidal activity, agar diffusion, P. carotovorum; conditions: Pectobacterium carotovorum, 2 mM/L
Description: (§1) Plant pathogenic bacterial strains Micrococcus luteus B-109, Pectobacterium atrosepticum 1043, Pectobacterium carotovorum subsp. carotovorum MI, Pseudomonas fluorescens EL-2.1, and Xanthomonas campestris B-610 and fungal strain Fusarium oxysporum IBPPM 543 were obtained from the specialized scientific culture collection of IBPPM RAS (WFCC no. 975, WDCM no. 1021) (CM IBPPM). Pathogenic fungus Phytophthora cactorum VKM F-985 provided by the All-Russian Collection of Microorganisms (VKM) and deposited at A.E. Favorsky Irkutsk Institute of Chemistry, SB RAS, was also used as test organism. Bacteria M. luteus, P. carotovorum subsp. carotovorum, P. atrosepticum, and Ps. fluorescens were grown in meat-peptone medium (BP), and X. campestris was grown in the medium with glucose, yeast extract, and calcium carbonate (GYCa). Solid media contained Bacto agar (18 g/L); pH was adjusted to 7.2-7.4. All bacterial cultures were grown at 28°C. The mycelial cultures of F. oxysporum and P. cactorum were grown on a glucose-peptone-yeast (GPY) nutrient medium at 27 °C. For inoculum preparation, both fungal strains were initially grown on the agar GPY in Petri dishes and then transferred into the seed medium by punching out 5 mm of the agar plate culture with a self-designed cutter.
(§2) Antibacterial and antifungal activities of the compounds were explored using the agar diffusion method and the technique of a phytopathogen radial growth inhibition. Method of diffusion in agar (measuring the diameter of growth inhibition zones) was used for determining the bactericidal activity. The 6-mm wells were made in ager medium (GYCa for Xanthomonas campestris or BP for other bacteria). Bacterial suspensions were distributed over the agar surface, and the tested compound's solution (150 μl) was added to each well. The width of growth inhibition zones around the wells was determined after incubation for 36-40 h.
(§3) The solutions of tested compounds were prepared with a concentration of 2 mmol/l (stock solution). For comparison, test compounds were also commonly applied disinfecting agents and antibiotics.

[2] = test system: Fusarium oxysporum IBPPM 543; test: Fungicidal activity, radial growth inhibition, F. oxysporum; conditions: for EC50: Fusarium oxysporum, IBPPM543, 168 h, day 7, EC50 = 50C/I, read-out: EC50, μg/mL at day 7
Description: as §1
For the fungicidal activity analysis, radial growth (colony diameters) of the fungi on a solid medium in the absence and in the presence of the compounds 3a,c-g solutions at various concentrations were compared. The method consisted of the following: sterile, melted and then cooled to about 60°C GPY agar medium (20.0 ml) was mixed with the precisely measured volumes of the solutions under question, and poured into a sterile Petri dish (90 mm i.d.). After solidification of GPY agar, the media were inoculated by the fungus using 10-day-old cultures of F. oxysporum or P. cactorum. The inoculation was done by transferring a 5-mm (i.d.) GPY-agar block covered with mycelium to the center of the Petri dish followed by incubation in a thermostat at 27°C. The fungicidal effect was scored by the size of mycelium colony on a Petri dish compared to the control without fungicidal admixtures to GPY agar. Each treatment was performed in at least four replicates in two independent experiments. The observation period ended when the control Petri dish was filled with mycelium (usually after 12 days). The inhibition of the phytopathogen colony growth by the compounds 3a,c-g or fludioxonil solutions was calculated as a percentage by which the mycelium radial propagation was decreased compared to the unaffected control, the latter was taken as 100 % of growth (or zero percent of inhibition). The EC50 value was calculated as the compound concentration at which the radial growth of the fungus colony was decreased by 50 % relative to the non-fungicidal control, according to the formula EC50 = 50C/I based on the approach developed e.g., in [34, 35].
as §3

[3] = test system: Pectobacterium atrosepticum 1043; test: Bactericidal activity, agar diffusion, P. atrosepticum; conditions: Pectobacterium atrosepticum, 1043, 2 mM/L
Description: as §1, §2, §3

[4] = 150 μl per well, 36-40 h, read-out: width of the inhibition zone
[5] = read-out: Inhibition zone width (mm), not less

CC[N+](CC)(CC)CC(=O)N/N=C1\C(=O)N(Cc2cc(C(C)(C)C)c(O)c(C(C)(C)C)c2)c2ccccc21 [Compound 3a, 2-(2-(1-(3,5-Di-tert-butyl-4-hydroxybenzyl)-2-oxoindolin-3-ylidene)hydrazinyl)-N,N,N-triethyl-2-oxoethanammonium bromide]
zone of inhibition at 2000 µM [1, 4]: 10 mm | zone of inhibition at 2000 µM [1, 5]: ≥ 10 mm | Inhibition value, I (%) ([2]; C 6.02 μg/mL, age of the fungus 3 days): 11% | Inhibition value, I (%) ([2]; C 6.02 μg/mL, age of the fungus 5 days): 4% | Inhibition value, I (%) ([2]; C 6.02 μg/mL, age of the fungus 7 days): 9% | Inhibition value, I (%) ([2]; C 6.02 μg/mL, age of the fungus 9 days): 0% | Inhibition value, I (%) ([2]; C 12.04 μg/mL, age of the fungus 3 days): 14% | Inhibition value, I (%) ([2]; C 12.04 μg/mL, age of the fungus 5 days): 12% | Inhibition value, I (%) ([2]; C 12.04 μg/mL, age of the fungus 7 days): 18% | Inhibition value, I (%) ([2]; C 12.04 μg/mL, age of the fungus 9 days): 3% | Inhibition value, I (%) ([2]; C 24.08 μg/mL, age of the fungus 3 days): 24% | Inhibition value, I (%) ([2]; C 24.08 μg/mL, age of the fungus 5 days): 16% | Inhibition value, I (%) ([2]; C 24.08 μg/mL, age of the fungus 7 days): 27% | Inhibition value, I (%) ([2]; C 24.08 μg/mL, age of the fungus 9 days): 4% | Inhibition value, I (%) ([2]; C 36.12 μg/mL, age of the fungus 3 days): 28% | Inhibition value, I (%) ([2]; C 36.12 μg/mL, age of the fungus 5 days): 24% | Inhibition value, I (%) ([2]; C 36.12 μg/mL, age of the fungus 7 days): 30% | Inhibition value, I (%) ([2]; C 36.12 μg/mL, age of the fungus 9 days): 12% | EC50 [2]: 33.4 µg/mL | zone of inhibition at 2000 µM [3, 4]: 8 mm | zone of inhibition at 2000 µM [3, 5]: ≥ 8 mm

CC[N+](CC)(CC)CC(=O)N/N=C1\C(=O)N(Cc2cc(C(C)(C)C)c(O)c(C(C)(C)C)c2)c2cccc(Br)c21 [Compound 3e, 2-(2-(1-(3,5-Di-tert-butyl-4-hydroxybenzyl)-4-bromo-2-oxoindolin-3-ylidene)hydrazinyl)-N,N,N-triethyl-2-oxoethanammonium bromide]
zone of inhibition at 2000 µM [1, 4]: 10 mm | zone of inhibition at 2000 µM [1, 5]: ≥ 10 mm | Inhibition value, I (%) ([2]; C 6.81 μg/mL, age of the fungus 3 days): 11% | Inhibition value, I (%) ([2]; C 6.81 μg/mL, age of the fungus 5 days): 13% | Inhibition value, I (%) ([2]; C 6.81 μg/mL, age of the fungus 7 days): 19% | Inhibition value, I (%) ([2]; C 6.81 μg/mL, age of the fungus 9 days): 6% | Inhibition value, I (%) ([2]; C 13.62 μg/mL, age of the fungus 3 days): 14% | Inhibition value, I (%) ([2]; C 13.62 μg/mL, age of the fungus 5 days): 18% | Inhibition value, I (%) ([2]; C 13.62 μg/mL, age of the fungus 7 days): 22% | Inhibition value, I (%) ([2]; C 13.62 μg/mL, age of the fungus 9 days): 9% | Inhibition value, I (%) ([2]; C 27.24 μg/mL, age of the fungus 3 days): 19% | Inhibition value, I (%) ([2]; C 27.24 μg/mL, age of the fungus 5 days): 19% | Inhibition value, I (%) ([2]; C 27.24 μg/mL, age of the fungus 7 days): 25% | Inhibition value, I (%) ([2]; C 27.24 μg/mL, age of the fungus 9 days): 20% | Inhibition value, I (%) ([2]; C 40.86 μg/mL, age of the fungus 3 days): 40% | Inhibition value, I (%) ([2]; C 40.86 μg/mL, age of the fungus 5 days): 37% | Inhibition value, I (%) ([2]; C 40.86 μg/mL, age of the fungus 7 days): 43% | Inhibition value, I (%) ([2]; C 40.86 μg/mL, age of the fungus 9 days): 29% | EC50 [2]: 17.9 µg/mL | zone of inhibition at 2000 µM [3, 4]: 15 mm | zone of inhibition at 2000 µM [3, 5]: ≥ 15 mm

CC[N+](CC)(CC)CC(=O)N/N=C1\C(=O)N(Cc2cc(C(C)(C)C)c(O)c(C(C)(C)C)c2)c2ccc([N+](=O)[O-])cc21 [Compound 3f, 2-(2-(1-(3,5-Di-tert-butyl-4-hydroxybenzyl)-5-nitro-2-oxoindolin-3-ylidene)hydrazinyl)-N,N,N-triethyl-2-oxoethanammonium bromide]
zone of inhibition at 2000 µM [1, 4]: 5 mm | Inhibition value, I (%) ([2]; C 6.47 μg/mL, age of the fungus 3 days): 13% | Inhibition value, I (%) ([2]; C 6.47 μg/mL, age of the fungus 5 days): 11% | Inhibition value, I (%) ([2]; C 6.47 μg/mL, age of the fungus 7 days): 10% | Inhibition value, I (%) ([2]; C 6.47 μg/mL, age of the fungus 9 days): 9% | Inhibition value, I (%) ([2]; C 12.94 μg/mL, age of the fungus 3 days): 26% | Inhibition value, I (%) ([2]; C 12.94 μg/mL, age of the fungus 5 days): 23% | Inhibition value, I (%) ([2]; C 12.94 μg/mL, age of the fungus 7 days): 21% | Inhibition value, I (%) ([2]; C 12.94 μg/mL, age of the fungus 9 days): 10% | Inhibition value, I (%) ([2]; C 25.88 μg/mL, age of the fungus 3 days): 28% | Inhibition value, I (%) ([2]; C 25.88 μg/mL, age of the fungus 5 days): 27% | Inhibition value, I (%) ([2]; C 25.88 μg/mL, age of the fungus 7 days): 32% | Inhibition value, I (%) ([2]; C 25.88 μg/mL, age of the fungus 9 days): 12% | Inhibition value, I (%) ([2]; C 38.82 μg/mL, age of the fungus 3 days): 29% | Inhibition value, I (%) ([2]; C 38.82 μg/mL, age of the fungus 5 days): 28% | Inhibition value, I (%) ([2]; C 38.82 μg/mL, age of the fungus 7 days): 34% | Inhibition value, I (%) ([2]; C 38.82 μg/mL, age of the fungus 9 days): 18% | EC50 [2]: 30.8 µg/mL | zone of inhibition at 2000 µM [3, 4]: 10 mm | zone of inhibition at 2000 µM [3, 5]: ≥ 10 mm

CC[N+](CC)(CC)CC(=O)N/N=C1\C(=O)N(Cc2cc(C(C)(C)C)c(O)c(C(C)(C)C)c2)c2c(Br)cc(Cl)cc21 [Compound 3g, 2-(2-(1-(3,5-Di-tert-butyl-4-hydroxybenzyl)-5-chloro-7-bromo-2-oxoindolin-3-ylidene)hydrazinyl)-N,N,N-triethyl-2-oxoethanammonium bromide]
zone of inhibition at 2000 µM [1, 4]: 9 mm | zone of inhibition at 2000 µM [1, 5]: ≥ 9 mm | Inhibition value, I (%) ([2]; C 7.15 μg/mL, age of the fungus 3 days): 0% | Inhibition value, I (%) ([2]; C 7.15 μg/mL, age of the fungus 5 days): 4% | Inhibition value, I (%) ([2]; C 7.15 μg/mL, age of the fungus 7 days): 5% | Inhibition value, I (%) ([2]; C 7.15 μg/mL, age of the fungus 9 days): 4% | Inhibition value, I (%) ([2]; C 14.30 μg/mL, age of the fungus 3 days): 9% | Inhibition value, I (%) ([2]; C 14.30 μg/mL, age of the fungus 5 days): 4% | Inhibition value, I (%) ([2]; C 14.30 μg/mL, age of the fungus 7 days): 11% | Inhibition value, I (%) ([2]; C 14.30 μg/mL, age of the fungus 9 days): 5% | Inhibition value, I (%) ([2]; C 28.60 μg/mL, age of the fungus 3 days): 11% | Inhibition value, I (%) ([2]; C 28.60 μg/mL, age of the fungus 5 days): 7% | Inhibition value, I (%) ([2]; C 28.60 μg/mL, age of the fungus 7 days): 26% | Inhibition value, I (%) ([2]; C 28.60 μg/mL, age of the fungus 9 days): 10% | Inhibition value, I (%) ([2]; C 42.90 μg/mL, age of the fungus 3 days): 31% | Inhibition value, I (%) ([2]; C 42.90 μg/mL, age of the fungus 5 days): 27% | Inhibition value, I (%) ([2]; C 42.90 μg/mL, age of the fungus 7 days): 32% | Inhibition value, I (%) ([2]; C 42.90 μg/mL, age of the fungus 9 days): 13% | EC50 [2]: 55 µg/mL | zone of inhibition at 2000 µM [3, 4]: 9 mm | zone of inhibition at 2000 µM [3, 5]: ≥ 9 mm
